Key:
[1] = tested on: M. tuberculosis Erdman strain; test: broth microdilution in 7H9 broth, 96 well plates, M. tuberculosis growth after 1 week of incubation; format: cell-based; conditions: one week of incubation
[2] = tested on: M. tuberculosis in viable but nonreplicative (NRP) state; test: Wayne model, nonreplicative (NRP2) cultures, viability by intracellular ATP and CFUs; format: cell-based; conditions: for kill over a 2-week exposure time: meropenem in combination with clavulanate, metronidazole as control compound; for reduction of viability (intracellular ATP, CFUs): combination with clavulanate, anaerobic chamber, 1 week and 2 weeks, data not shown
M. tuberculosis H37Rv = test: minimum inhibitory concentration (MIC) in 7H9 medium at 37° C.; format: cell-based; conditions: for effect of addition of clavulanate on the MIC value: absence vs presence of 2.5 μg ml^−1 clavulanate, data not shown
BlaC = BlaC (Mycobacterium tuberculosis, UniProt P9WKD3); test: rate of hydrolysis by BlaC; format: biochemical, M. tuberculosis
Chain of BlaC (P9WKD3 35-307): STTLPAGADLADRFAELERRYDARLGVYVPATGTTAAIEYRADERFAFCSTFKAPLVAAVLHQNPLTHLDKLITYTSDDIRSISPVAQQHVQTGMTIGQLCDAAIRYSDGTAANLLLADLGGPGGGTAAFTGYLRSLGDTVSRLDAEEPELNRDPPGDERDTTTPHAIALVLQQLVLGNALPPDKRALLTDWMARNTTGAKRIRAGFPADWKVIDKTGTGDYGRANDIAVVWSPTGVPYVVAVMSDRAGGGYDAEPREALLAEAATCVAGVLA

[3] = tested on: M. tuberculosis Erdman strain; test: MIC against Erdman strain; format: cell-based; conditions: Mycobacterium tuberculosis, read-out: MIC value
[4] = at any concentration of clavulanate (0.0.5, 1 and 2 μg/ml)

CC(C)(O/N=C(\C(=O)N[C@@H]1C(=O)N2C(C(=O)[O-])=C(C[n+]3ccccc3)CS[C@H]12)c1csc(N)n1)C(=O)O [ceftazidime]
inhibition of M. tuberculosis growth [1, 4]: no inhibition

Cc1ncc([N+](=O)[O-])n1CCO [metronidazole]
kill over a 2-week exposure time [2]: comparable

CO/N=C(\C(=O)N[C@@H]1C(=O)N2C(C(=O)O)=C(COC(N)=O)CS[C@H]12)c1ccco1 [cefuroxime]
inhibition of M. tuberculosis growth ([1]; 2 μg/ml cefuroxime and 2 μg/ml clavulanate): Modest inhibition | reduction of viability (intracellular ATP, CFUs) [2]: effective in reducing viability

CCN1CCN(C(=O)N[C@@H](C(=O)N[C@@H]2C(=O)N3[C@@H]2SC(C)(C)[C@@H]3C(=O)O)c2ccccc2)C(=O)C1=O [piperacillin]
inhibition of M. tuberculosis growth [1, 4]: no inhibition

CC1(C)S[C@@H]2[C@H](NC(=O)[C@H](N)c3ccc(O)cc3)C(=O)N2[C@H]1C(=O)O [amoxicillin]
inhibition of M. tuberculosis growth ([1]; 4 μg/ml of amoxicillin and 1-2 μg/ml clavulanate): Modest inhibition | effect of addition of clavulanate on the MIC value (M. tuberculosis H37Rv): only a modest effect | reduction of viability (intracellular ATP, CFUs) [2]: effective in reducing viability

C[C@@H](O)[C@H]1C(=O)N2C(C(=O)O)=C(S[C@@H]3CN[C@H](C(=O)N(C)C)C3)[C@H](C)[C@H]12 [meropenem]
M. tuberculosis growth ([1]; 1 μg/ml meropenem in combination with 1 μg/ml clavulanate): No M. tuberculosis growth | MIC value in the presence of clavulanate (M. tuberculosis H37Rv; 7H9 medium, 37° C., 2.5 μg ml^−1 clavulanate): 0.32 µg/mL | MIC (M. tuberculosis H37Rv; Mycobacterium tuberculosis, with clavulanate, as restated): ≤ 1 µg/mL | rate of hydrolysis by BlaC (BlaC): low | reduction of viability (intracellular ATP, CFUs) [2]: more pronounced | kill over a 2-week exposure time [2]: more than a log kill | MIC [3]: ≤ 1 µg/mL

CC1(C)S[C@@H]2[C@H](NC(=O)[C@H](N)c3ccccc3)C(=O)N2[C@H]1C(=O)O [ampicillin]
effect of addition of clavulanate on the MIC value (M. tuberculosis H37Rv): only a modest effect

Source: patent publication US20110190253A1, “METHOD FOR TREATING TUBERCULOSIS” (priority 2008, published 2011)
